The assay concerns BDF1 mice, P388 leukemia ip, median survival T/C. Kind of assay: NCI In Vivo Anticancer Drug Screen. Data for tumor model P388 Leukemia (intraperitoneal) in B6D2F1 (BDF1) mice. To be noted: endpoint: median survival time, higher = longer survival. An outline of the steps:
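Each value expresses how treatment altered survival: treated-mouse outcome over vehicle-mouse outcome, both groups bearing the transplanted tumour.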

[1] abbreviates: dose: 50.0 mg/kg/injection, schedule: Q04DX003 (ip), vehicle: saline with Tween-80.
Where [2] appears, read: dose: 200.0 mg/kg/injection, schedule: Q04DX003 (ip), vehicle: saline with Tween-80.
The mark [3] stands for this setting: dose: 50.0 mg/kg/injection, schedule: Q01DX009 (ip), vehicle: Klucel (hydroxypropylcellulose) (HPC).
[4] abbreviates: dose: 100.0 mg/kg/injection, schedule: Q01DX009 (ip), vehicle: Klucel (hydroxypropylcellulose) (HPC).
[5] abbreviates: dose: 200.0 mg/kg/injection, schedule: Q01DX009 (ip), vehicle: Klucel (hydroxypropylcellulose) (HPC).
The mark [6] stands for this setting: dose: 25.0 mg/kg/injection, schedule: Q01DX009 (ip), vehicle: saline with Tween-80.
Setting [7] is: dose: 50.0 mg/kg/injection, schedule: Q01DX009 (ip), vehicle: saline with Tween-80.
The mark [8] stands for this setting: dose: 100.0 mg/kg/injection, schedule: Q01DX009 (ip), vehicle: saline with Tween-80.
Where [9] appears, read: dose: 25.0 mg/kg/injection, schedule: Q04DX003 (ip), vehicle: saline.
[10] abbreviates: dose: 50.0 mg/kg/injection, schedule: Q01DX009 (ip), vehicle: other.
The mark [11] stands for this setting: dose: 200.0 mg/kg/injection, schedule: Q01DX009 (ip), vehicle: saline with Tween-80.

Several values for one entry are separate records, joined by “and”; a condition that tells them apart may be missing. Equal values may be shown once. Inconclusive results and toxic doses are left out.

Consider `Clc1ccc(-c2nc3ccccc3cc2N2CCCCC2)cc1`, for which the T/C is 110 % of control (dose: 100.0 mg/kg/injection, schedule: Q01DX001 (ip), vehicle: other); 105 % of control (dose: 200.0 mg/kg/injection, schedule: Q01DX001 (ip), vehicle: other); 105 % of control (dose: 400.0 mg/kg/injection, schedule: Q01DX001 (ip), vehicle: other).
As for `C[As](C)Sc1ccnc(S[As](C)C)n1`, the T/C under setting [1] is 100 % of control; the T/C (dose: 100.0 mg/kg/injection, schedule: Q04DX003 (ip), vehicle: saline with Tween-80) was 100 % of control; the T/C under setting [2] was 104 % of control.
Consider `CCN(c1ccc(C=O)cc1)c1ccc([N+](=O)[O-])cc1[N+](=O)[O-]`, for which the T/C under setting [3] is 99 % of control, the T/C under setting [4] is 97 % of control and the T/C under setting [5] was 97 % of control.
As for `CCOC(=O)Nc1cncc(NC(=O)OCC)n1`, the T/C by setting is: (dose: 6.25 mg/kg/injection, schedule: Q04DX003 (ip), vehicle: water) 106 % of control; (dose: 12.5 mg/kg/injection, schedule: Q04DX003 (ip), vehicle: water) 100 % of control; (dose: 25.0 mg/kg/injection, schedule: Q01DX009 (ip), vehicle: water) 100 % of control; (dose: 25.0 mg/kg/injection, schedule: Q04DX003 (ip), vehicle: water) 105 % of control; (dose: 50.0 mg/kg/injection, schedule: Q01DX009 (ip), vehicle: water) 101 % of control; (dose: 50.0 mg/kg/injection, schedule: Q04DX003 (ip), vehicle: water) 101 % of control. Moreover, the T/C (dose: 100.0 mg/kg/injection, schedule: Q01DX009 (ip), vehicle: water) is 93 % of control; the T/C (dose: 100.0 mg/kg/injection, schedule: Q04DX003 (ip), vehicle: water) is 100 % of control; the T/C (dose: 200.0 mg/kg/injection, schedule: Q01DX009 (ip), vehicle: water) is 95 % of control; the T/C (dose: 400.0 mg/kg/injection, schedule: Q01DX009 (ip), vehicle: water) was 87 % of control.
On to `C=C1C(=O)OC2C=C(C)C3C(O)CC(C)(O)C3CC12` (stereo not given), for which the T/C by setting is: under setting [4], 114 % of control; under setting [5], 102 % of control.
In the case of `COc1ccc(S(=O)(=O)c2ccccc2)c2nonc12`, the T/C under setting [6] is 90 % of control, the T/C under setting [7] was 86 % of control and the T/C under setting [8] was 92 % of control.
In the case of `O=C(Nc1ccc(Cl)cc1C(=O)c1ccccn1)c1ccccc1`, the T/C reads like this: under setting [2], 120 % of control; (dose: 400.0 mg/kg/injection, schedule: Q04DX003 (ip), vehicle: saline with Tween-80) 110 % of control.
On to `CN(C)c1ccc(C2OC3(CCCCC3)C[N+]23CCCC3)cc1` (stereo not given), for which the T/C (dose: 18.0 mg/kg/injection, schedule: Q01DX009 (ip), vehicle: saline) was 110 % of control; the T/C under setting [9] is 95 % of control; the T/C (dose: 28.0 mg/kg/injection, schedule: Q01DX009 (ip), vehicle: saline) was 105 % of control; the T/C (dose: 40.0 mg/kg/injection, schedule: Q01DX009 (ip), vehicle: saline) is 94 % of control; the T/C (dose: 50.0 mg/kg/injection, schedule: Q04DX003 (ip), vehicle: saline) was 100 % of control; the T/C (dose: 75.0 mg/kg/injection, schedule: Q01DX001 (ip), vehicle: Klucel (hydroxypropylcellulose) (HPC)) was 104 % of control. Besides, the T/C (dose: 100.0 mg/kg/injection, schedule: Q04DX003 (ip), vehicle: saline) is 90 % of control and the T/C (dose: 150.0 mg/kg/injection, schedule: Q01DX001 (ip), vehicle: Klucel (hydroxypropylcellulose) (HPC)) is 100 % of control.
As to `CN1CCC(S)(S)CC1`, the T/C is, setting by setting: (dose: 12.5 mg/kg/injection, schedule: Q04DX003 (ip), vehicle: saline with Tween-80) 100 % of control; (dose: 25.0 mg/kg/injection, schedule: Q04DX003 (ip), vehicle: saline with Tween-80) 100 % of control; under setting [1], 109 % of control.
Regarding `COc1ccc(OC)c(C(=O)C=C(C(F)(F)F)C(F)(F)F)c1`, the T/C (dose: 33.0 mg/kg/injection, schedule: Q01DX009 (ip), vehicle: other) is 109 % of control; the T/C under setting [10] was 113 % of control; the T/C (dose: 75.0 mg/kg/injection, schedule: Q01DX009 (ip), vehicle: other) was 122 % of control.
In the case of `CCSc1ccc2c(cc1=O)[C@@H](NC1OC(CO)C(O)C(O)C1O)CCc1cc(OC)c(OC)c(OC)c1-2` (stereo not given in full), the T/C under setting [10] was 106 % of control and 111 % of control; the T/C (dose: 100.0 mg/kg/injection, schedule: Q01DX009 (ip), vehicle: other) is 106 % of control and 115 % of control; the T/C (dose: 200.0 mg/kg/injection, schedule: Q01DX009 (ip), vehicle: other) was 112 % of control.
Consider `CCN(CC)CCNc1ccc([N+](=O)[O-])c2sc3ccccc3c(=O)c12`, for which the T/C (dose: 50.0 mg/kg/injection, schedule: Q01DX009 (ip), vehicle: saline sonified) was 177 % of control and the T/C (dose: 100.0 mg/kg/injection, schedule: Q01DX009 (ip), vehicle: saline sonified) is 95 % of control.
For the compound `CCOC(=O)/C(=N\O)C1=CSC2=NNC(C)(C)N12`, the T/C was 95 % of control under setting [7] and 92 % of control under setting [11].
For `Cc1ccc(S(=O)(=O)NCN2C(=O)c3ccccc3C2=O)cc1`, the T/C (dose: 12.5 mg/kg/injection, schedule: Q01DX009 (ip), vehicle: Klucel (hydroxypropylcellulose) (HPC)) is 100 % of control; the T/C (dose: 25.0 mg/kg/injection, schedule: Q01DX009 (ip), vehicle: Klucel (hydroxypropylcellulose) (HPC)) was 100 % of control; the T/C under setting [6] was 86 % of control; the T/C under setting [3] is 105 % of control; the T/C (dose: 100.0 mg/kg/injection, schedule: Q01DX009 (ip), vehicle: saline) is 91 % of control.
For `CC(=O)c1c(C)c([N+](=O)[O-])c(C(C)(C)C)c([N+](=O)[O-])c1C`, the T/C under setting [5] was 91 % of control and 100 % of control; the T/C (dose: 400.0 mg/kg/injection, schedule: Q01DX009 (ip), vehicle: Klucel (hydroxypropylcellulose) (HPC)) was 100 % of control and 123 % of control.
For the compound `Cc1ccc(C)c(OS(=O)(=O)c2ccc([N+](=O)[O-])cc2)c1`, the T/C reads like this: (dose: 100.0 mg/kg/injection, schedule: Q01DX001 (ip), vehicle: saline sonified) 100 % of control; (dose: 200.0 mg/kg/injection, schedule: Q01DX001 (ip), vehicle: saline sonified) 104 % of control; (dose: 400.0 mg/kg/injection, schedule: Q01DX001 (ip), vehicle: saline sonified) 90 % of control.
With `O=c1[nH]cnc2nc(Br)[nH]c12`, the T/C was 100 % of control under setting [7]; 101 % of control under setting [8]; 93 % of control under setting [11]; 101 % of control (dose: 400.0 mg/kg/injection, schedule: Q01DX009 (ip), vehicle: saline with Tween-80).
On to `Cn1cnc([N+](=O)[O-])c1Sc1nc(N)nc2c1ncn2C1OC(CO)C(O)C1O` (stereo not given), for which the T/C (dose: 7.0 mg/kg/injection, schedule: Q04DX003 (ip), vehicle: saline) was 163 % of control; the T/C (dose: 7.03 mg/kg/injection, schedule: Q01DX009 (ip), vehicle: saline) is 120 % of control; the T/C (dose: 9.2 mg/kg/injection, schedule: Q01DX009 (ip), vehicle: saline) is 163 % of control; the T/C (dose: 14.06 mg/kg/injection, schedule: Q01DX009 (ip), vehicle: saline) was 163 % of control; the T/C (dose: 16.0 mg/kg/injection, schedule: Q04DX003 (ip), vehicle: saline) was 168 % of control and 172 % of control; the T/C (dose: 21.0 mg/kg/injection, schedule: Q01DX009 (ip), vehicle: saline) is 95 % of control. In addition, the T/C was 161 % of control and 168 % of control under setting [9]; 100 % of control (dose: 56.25 mg/kg/injection, schedule: Q01DX009 (ip), vehicle: saline); 104 % of control and 113 % of control (dose: 150.0 mg/kg/injection, schedule: Q04DX003 (ip), vehicle: saline); 109 % of control (dose: 225.0 mg/kg/injection, schedule: Q04DX003 (ip), vehicle: saline); 109 % of control (dose: 335.0 mg/kg/injection, schedule: Q04DX003 (ip), vehicle: saline).
Take `COC1=NCN=C2SC=C(N)N=C12`: the T/C was 100 % of control (dose: 12.5 mg/kg/injection, schedule: Q01DX009 (ip), vehicle: saline); 98 % of control (dose: 25.0 mg/kg/injection, schedule: Q01DX009 (ip), vehicle: saline); 105 % of control (dose: 50.0 mg/kg/injection, schedule: Q01DX009 (ip), vehicle: saline).

The values are drawn from PubChem BioAssay AID328 (DTP/NCI, 2004).
